In ChEMBL document CHEMBL5537177, “Discovery of Potent Antimalarial Type II Kinase Inhibitors with Selectivity over Human Kinases” (J Med Chem, 2024):
Calls of active or inactive are those of the source. The rule behind the calls is not given here.

Key:
[1] = system: Plasmodium falciparum; test: Antimalarial activity against Plasmodium falciparum at ring stage infected erythrocytes assessed as reduction in parasitemia measured after 60 hrs by flow cytometry; format: functional, organism-based; details: Erythrocyte
[2] = Selectivity index, ratio of EC50 for human HepG2 cells to EC50 for multidrug-resistant Plasmodium falciparum Dd2 at ring stage infected in A+ erythrocytes; format: toxicity, cell-based; details: read-out: Ratio EC50
[3] = system: Plasmodium falciparum; test: Antiplasmodial activity against drug-sensitive Plasmodium falciparum 3D7 at ring stage infected in A+ erythrocytes assessed as parasite growth reduction incubated for 72 hrs by SYBR Green I dye based analysis; format: functional, organism-based; details: 3D7, Erythrocyte
[4] = system: Plasmodium falciparum; test: Antimalarial activity against synchronous blood-stage Plasmodium falciparum 3D7 assessed as parasite clearance time at 10 times EC50 treated every 24 hrs for 120 hrs followed by compound washout and subsequent addition of RBCs measured after 21 days by parasite reduction ratio assay; format: functional
[5] = system: Plasmodium falciparum; test: (§1) Antimalarial activity against artemisinin-sensitive synchronized early ring stage Plasmodium falciparum IPC 5188 (MRA-1239) clinical isolate assessed as decrease in parasite survival at ring stage at 10 times EC50 treated for 6 hrs followed by compound removal measured after 72 hrs by geimsa staining based microscopy; format: functional, organism-based
[6] = system: Plasmodium falciparum; test: as §1, with “artemisinin-resistant/piperaquine-sensitive” for “artemisinin-sensitive”, “5202 (MRA-1240)” for “5188 (MRA-1239)”, “6 to 48” for “6”; format: functional, organism-based
[7] = system: Plasmodium falciparum; test: Antimalarial activity against synchronized early ring stage Plasmodium falciparum 3D7 (MRA-152) clinical isolate assessed as decrease in parasite survival at ring stage at 10 times EC50 treated for 6 hrs followed by compound removal measured after 72 hrs by geimsa staining based microscopy; format: functional, organism-based
[8] = system: Plasmodium falciparum; test: as §1, with “48” for “6”; format: functional, organism-based
[9] = Metabolic stability in mouse liver microsomes assessed as intrinsic clearance; format: ADME, Liver cells
[10] = system: Plasmodium falciparum; test: as §1, with “artemisinin/piperaquine-resistant” for “artemisinin-sensitive”, “6261 (MRA-1284)” for “5188 (MRA-1239)”, “6 to 48” for “6”; format: functional, organism-based
[11] = system: Plasmodium falciparum; test: Resistance index, ratio of EC50 for multidrug-resistant Plasmodium falciparum Dd2 at ring stage infected in A+ erythrocytes to EC50 for drug-sensitive Plasmodium falciparum 3D7 at ring stage infected in A+ erythrocytes; format: organism-based; details: human
[12] = Selectivity index, ratio of EC50 for human MCF7 cells to EC50 for multidrug-resistant Plasmodium falciparum Dd2 at ring stage infected in A+ erythrocytes; format: toxicity, cell-based; details: read-out: Ratio EC50
[13] = system: Plasmodium falciparum; test: Antiplasmodial activity against multidrug-resistant Plasmodium falciparum Dd2 at ring stage infected in A+ erythrocytes assessed as parasite growth reduction incubated for 72 hrs by SYBR Green I dye based analysis; format: functional, organism-based; details: Dd2, Erythrocyte
[14] = system: Plasmodium falciparum; test: as §1, with “artemisinin-resistant” for “artemisinin-sensitive”, “5202 (MRA-1240)” for “5188 (MRA-1239)”; format: functional, organism-based
[15] = system: Plasmodium falciparum; test: Antimalarial activity against synchronized early ring stage Plasmodium falciparum 3D7 (MRA-152) clinical isolate assessed as decrease in parasite survival at ring stage at 10 times EC50 treated for 6 to 48 hrs followed by compound removal measured after 72 hrs by geimsa staining based microscopy; format: functional, organism-based
[16] = system: MCF7; test: (§2) Cytotoxicity against human MCF7 cells assessed as reduction in cell viability incubated for 48 hrs by MTS assay; format: toxicity, cell-based; details: mcf7
[17] = system: Plasmodium falciparum; test: as §1, with “artemisinin-resistant” for “artemisinin-sensitive”, “5202 (MRA-1240)” for “5188 (MRA-1239)”, “48” for “6”; format: functional, organism-based
[18] = system: Plasmodium falciparum; test: Antimalarial activity against synchronous blood-stage Plasmodium falciparum 3D7 assessed as log of parasite reduction ratio at 10 times EC50 treated every 24 hrs for 120 hrs followed by compound washout and subsequent addition of RBCs measured after 21 days; format: functional
[19] = system: Plasmodium falciparum; test: as §1, with “artemisinin/piperaquine-resistant” for “artemisinin-sensitive”, “6261 (MRA-1284)” for “5188 (MRA-1239)”, “48” for “6”; format: functional, organism-based
[20] = system: Plasmodium falciparum; test: as §1, with “artemisinin/piperaquine-sensitive” for “artemisinin-sensitive”, “6 to 48” for “6”; format: functional, organism-based
[21] = system: Plasmodium falciparum; test: as §1, with “artemisinin/piperaquine-resistant” for “artemisinin-sensitive”, “6261 (MRA-1284)” for “5188 (MRA-1239)”; format: functional, organism-based
[22] = system: Plasmodium falciparum; test: Antimalarial activity against synchronized early ring stage Plasmodium falciparum 3D7 (MRA-152) clinical isolate assessed as decrease in parasite survival at ring stage at 10 times EC50 treated for 48 hrs followed by compound removal measured after 72 hrs by geimsa staining based microscopy; format: functional, organism-based
[23] = system: HepG2; test: (§3) Cytotoxicity against human HepG2 cells assessed as reduction in cell viability incubated for 48 hrs by MTS assay; format: toxicity, cell-based; details: hepg2
[24] = system: Plasmodium falciparum; test: Antimalarial activity against synchronous blood-stage Plasmodium falciparum 3D7 assessed as duration of lag phase at 10 times EC50 treated every 24 hrs for 120 hrs followed by compound washout and subsequent addition of RBCs measured after 21 days by parasite reduction ratio assay; format: functional
[25] = Metabolic stability in mouse liver microsomes assessed as half life; format: ADME, Liver cells
[26] = as §2; format: toxicity, cell-based; details: human, MCF7 cells
[27] = as §3; format: toxicity, cell-based; details: human, HepG2 cells
[28] = biological target: Ephrin type-A receptor 2 (Homo sapiens, UniProt P29317); test: Inhibition of human EphA2 by FRET assay
Sequence of Ephrin type-A receptor 2 (P29317 whole entry): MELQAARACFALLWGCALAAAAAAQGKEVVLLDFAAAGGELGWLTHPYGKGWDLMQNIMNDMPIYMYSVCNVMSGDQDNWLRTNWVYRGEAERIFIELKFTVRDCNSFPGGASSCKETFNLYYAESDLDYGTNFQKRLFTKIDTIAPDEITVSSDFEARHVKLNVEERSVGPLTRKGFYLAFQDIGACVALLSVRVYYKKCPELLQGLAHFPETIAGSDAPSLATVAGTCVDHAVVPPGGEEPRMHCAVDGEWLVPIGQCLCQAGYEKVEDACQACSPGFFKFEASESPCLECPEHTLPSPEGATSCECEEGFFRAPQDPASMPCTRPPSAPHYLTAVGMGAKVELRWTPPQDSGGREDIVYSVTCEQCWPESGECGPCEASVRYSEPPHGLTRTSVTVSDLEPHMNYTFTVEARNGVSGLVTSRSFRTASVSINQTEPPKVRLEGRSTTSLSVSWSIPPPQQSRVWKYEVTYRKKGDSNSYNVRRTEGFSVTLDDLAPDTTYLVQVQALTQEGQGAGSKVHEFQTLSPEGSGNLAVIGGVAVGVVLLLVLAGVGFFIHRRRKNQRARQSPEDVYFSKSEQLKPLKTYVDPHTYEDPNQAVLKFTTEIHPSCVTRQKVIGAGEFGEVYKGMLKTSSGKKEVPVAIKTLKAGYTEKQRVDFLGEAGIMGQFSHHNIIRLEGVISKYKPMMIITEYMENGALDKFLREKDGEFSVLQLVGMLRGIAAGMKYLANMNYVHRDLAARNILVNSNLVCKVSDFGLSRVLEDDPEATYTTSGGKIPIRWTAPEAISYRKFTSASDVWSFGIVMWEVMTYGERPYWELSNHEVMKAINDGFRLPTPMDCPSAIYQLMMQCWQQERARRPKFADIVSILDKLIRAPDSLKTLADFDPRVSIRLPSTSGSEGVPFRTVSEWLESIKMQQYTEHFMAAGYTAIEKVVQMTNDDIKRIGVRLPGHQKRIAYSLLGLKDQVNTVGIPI

[29] = system: Plasmodium falciparum; test: microbe, parasite or virus in culture; details: Dd2, 72 h
Description: Antiplasmodial activity against asynchronous Plasmodium falciparum Dd2 assessed as parasite growth reduction incubated for 72 hrs by SYBR Green I dye based analysis

[30] = Half life in Balb/C mouse at 3 mg/kg, iv; format: ADME, organism-based; details: in vivo
[31] = Volume of distribution at steady state in Balb/C mouse at 3 mg/kg, iv; format: ADME, organism-based; details: in vivo, read-out: Vdss
[32] = system: Plasmodium falciparum; test: microbe, parasite or virus in culture; details: Dd2, 72 h; remark: listed apart in the source
Description: Antimalarial activity against wild-type Plasmodium falciparum Dd2 assessed as reduction in parasitemia incubated for 72 hrs by SYBR green I dye based analysis

[33] = system: Plasmodium falciparum; test: Antimalarial activity against Plasmodium falciparum harboring PI4K S1320L mutation assessed as reduction in parasitemia incubated for 72 hrs by SYBR green I dye based analysis; format: functional, organism-based
[34] = system: Plasmodium falciparum; test: Antimalarial activity against Plasmodium falciparum harboring CARL I1139K mutation assessed as reduction in parasitemia incubated for 72 hrs by SYBR green I dye based analysis; format: functional, organism-based
[35] = system: Plasmodium falciparum; test: Antimalarial activity against Plasmodium falciparum harboring AcAS A597V mutation assessed as reduction in parasitemia incubated for 72 hrs by SYBR green I dye based analysis; format: functional, organism-based

Cc1ccc(NC(=O)c2ccc(CN3CC[C@H](N(C)C)C3)c(C(F)(F)F)c2)cc1Nc1nccc(-c2cncnc2)n1 [BAFETINIB]
EC50 [1]: 1.3 µM

CCN1CCN(Cc2ccc(NC(=O)c3cc(Cl)cc(NC(=O)c4cncc(-c5ccc(C#N)cc5)c4)c3)cc2C(F)(F)F)CC1
selectivity ratio [2]: 41 | EC50 [3]: 0.036 µM | T99.9% [4]: < 32 h | Activity [5]: inactive | EC50 [6]: 0.0415 µM | Activity [7]: inactive | Activity [8]: Active | intrinsic clearance [9]: 16 µL/min/mg | EC50 [10]: 0.0649 µM | Ratio EC50 [11]: 1 | selectivity ratio [12]: 61 | EC50 [13]: 0.036 µM | Activity [14]: inactive | EC50 [15]: 0.0535 µM | EC50 [16]: 2.19 µM | Activity [17]: Active | log(activity) [18]: 5.12 | Activity [19]: Active | EC50 [20]: 0.0439 µM | Activity [21]: inactive | Activity [22]: Active | EC50 [23]: 1.46 µM | Time [24]: 0 h | t1/2 [25]: 0.708 h

CCN1CCN(Cc2ccc(NC(=O)c3cc(C)cc(NC(=O)c4cncc(-c5cccs5)c4)c3)cc2C(F)(F)F)CC1
selectivity ratio [2]: 8.6 | EC50 [3]: 0.235 µM | Ratio EC50 [11]: 1.6 | selectivity ratio [12]: 14 | EC50 [13]: 0.372 µM | EC50 at 48 h [26]: 5.22 µM | EC50 at 48 h [27]: 3.2 µM

CCN1CCN(Cc2ccc(NC(=O)c3ccc(C)c(NC(=O)c4cncc(-c5cccs5)c4)c3)cc2C(F)(F)F)CC1
IC50 [28]: 0.011 µM | EC50 [29]: 3.91 µM

CCN1CCN(Cc2ccc(NC(=O)c3cc(NC(=O)c4cncc(-c5cccs5)c4)cc(OC)c3)cc2C(F)(F)F)CC1
IC50 [28]: > 10 µM | EC50 [29]: 0.341 µM

CC1(C)c2nc(-c3ccc(F)cc3)c(Nc3ccc(Cl)cc3)n2CCN1C(=O)CN
half-life [30]: 8.9 h | Vd [31]: 11.8 L/kg | EC50 [32]: 0.0018 µM | EC50 [33]: 0.0019 µM | EC50 [34]: 1.39 µM | EC50 [35]: 0.0011 µM

Cc1cn(-c2cc(NC(=O)c3ccc(C)c(Nc4nccc(-c5cccnc5)n4)c3)cc(C(F)(F)F)c2)cn1 [NILOTINIB]
EC50 [1]: < 1 µM

O=C1C(O)=C([C@H]2CC[C@H](c3ccc(Cl)cc3)CC2)C(=O)c2ccccc21 [ATOVAQUONE]
T99.9% [4]: 101 h | log(activity) [18]: 2.95 | Time [24]: 72 h

C[C@H]1[C@@H](O)O[C@@H]2O[C@@]3(C)CC[C@H]4[C@H](C)CC[C@@H]1[C@@]24OO3 [ARTENIMOL]
T99.9% [4]: 31 h | log(activity) [18]: 3.93 | Time [24]: 0 h
